Laboratory results taken from patent US20240148821A1, “PHARMACEUTICAL USE OF CYCLIC PEPTIDE COMPOUND” (CHUGAI SEIYAKU KABUSHIKI KAISHA, priority 2021, published 2024).
Numbered stars: 1 amine (or outer) side, 2 acyl side, 3 side chain; on linkers, the order of the positions; unused ones are H or OH. Bridge positions count the residues as written; N and C are the ends. Square brackets hold non-standard residues; d marks the D form. Peptide text beside a SMILES is read from it. * marks the point of attachment. NMeAbu(3,3-F2-piperidino) = CN[C@@H](CCN1CCCC(F)(F)C1)C(=O)O; hPhe(3-Cl-4-CF3) = N[C@@H](CCc1ccc(C(F)(F)F)c(Cl)c1)C(=O)O; hPhe(3-F,4-CF3) = N[C@@H](CCc1ccc(C(F)(F)F)c(F)c1)C(=O)O; hPhe(4-CF3) = N[C@@H](CCc1ccc(C(F)(F)F)cc1)C(=O)O; ACHC(1R,2R) = O=C([C@@H]1CCCC[C@H]1N[*:1])[*:2]; NMePhe(4-F) = CN[C@@H](Cc1ccc(F)cc1)C(=O)O; NMedβ3hAla = C[C@H](CC(=O)[*:2])N(C)[*:1]; NMeAla(cPent) = CN[C@@H](CC1CCCC1)C(=O)O; NMeGly(cPent) = CN[C@H](C(=O)O)C1CCCC1; NMeCha = CN[C@@H](CC1CCCCC1)C(=O)O; NMeChg = CN[C@H](C(=O)O)C1CCCCC1; NMeD = CN[C@@H](CC(=O)O)C(=O)O; CH2CONHtBu = CC(C)(C)NC(=O)C*; NMeL = CN[C@@H](CC(C)C)C(=O)O; NMeV = CN[C@H](C(=O)O)C(C)C; d(β3hA) = C[C@@H](N)CC(=O)O; NMeS = CN[C@@H](CO)C(=O)O; Iva = CC[C@](C)(N)C(=O)O; Morpholide = C1CN(*)CCO1; NMeA = CN[C@@H](C)C(=O)O; Piperidide = C1CCN(*)CC1; dNMeA = CN[C@H](C)C(=O)O; Ac5c = NC1(C(=O)O)CCCC1; Aze = O=C(O)[C@@H]1CCN1; Ac3c = NC1(C(=O)O)CC1; Aib = CC(C)(N)C(=O)O; Isopentyl = CC(C)CC*; Sar = CNCC(=O)O

The compounds below were run on Human pancreatic cancer cell line AsPC-1 (G12D mutation Kras) (assay: AsPC-1 cell growth inhibition (AsPC-1 CGI)). Settings: read-out: AsPC-1 cell growth inhibition, 50% growth inhibitory concentration (IC50 value); 96 hours, CellTiter-Glo, values classified in ranges.
Type: cell-based
Protocol: Test compounds were serially dilated with dimethyl sulfoxide, and 200 nL was then dispensed to a U-bottom 96-well plate using Labcyte Echo. […] The cell suspension was dispensed to a. plate containing a test compound at 100 μL per well and incubated at 37° C. in a 5% carbon dioxide gas incubator. 96 hours later, 80 μL of CellTiter-Glo (Promega) was added to each well and fluorescence was measured.
With `CC[C@H](C)[C@@H]1NC(=O)[C@H](CC(C)C)NC(=O)[C@@H]2CCCC[C@H]2NC(=O)[C@H](C(C)C)N(C)C(=O)C2(CCCC2)NC(=O)[C@@H]2CCCN2C(=O)[C@H](CCc2ccc(C(F)(F)F)c(Cl)c2)NC(=O)CN(C)C(=O)[C@H](CC2CCCCC2)N(C)C(=O)CN(C)C(=O)CN(C)C1=O` [Compound 569] (cyclo([Ac5c][NMeV][ACHC(1R,2R)]LI[Sar][Sar][NMeCha][Sar][hPhe(3-Cl-4-CF3)]P)) the IC50 was over 500 nM. `CC[C@H](C)[C@@H]1NC(=O)[C@H](CC(C)C)N(C)C(=O)C[C@@H](C(=O)N2CCCCC2)N(C)C(=O)[C@H](CC(C)C)N(C)C(=O)C(C)(C)NC(=O)[C@H](COCC(=O)NC(C)(C)C)N(C)C(=O)[C@H](CCc2ccc(C(F)(F)F)cc2)NC(=O)CN(C)C(=O)[C@H](COCCC(C)C)N(C)C(=O)CN(C)C(=O)CN(C)C1=O` [Compound 1502] ([NMeL]I[Sar][Sar][NMeS](Isopentyl)[Sar][hPhe(4-CF3)][NMeS](CH2CONHtBu)[Aib][NMeL][NMeD]-Piperidide; lactam N-11) gave an IC50 of over 500 nM. With `CC[C@H](C)[C@@H]1NC(=O)[C@H](CC(C)C)N(C)C(=O)C[C@@H](C)N(C)C(=O)[C@H](CC2CCCC2)N(C)C(=O)C2(CCCC2)NC(=O)[C@@H]2CCCN2C(=O)[C@H](CCc2ccc(C(F)(F)F)c(Cl)c2)NC(=O)CN(C)C(=O)[C@H](CC2CCCCC2)N(C)C(=O)CN(C)C(=O)CN(C)C1=O` [Compound 991] (cyclo([Ac5c][NMeAla(cPent)][NMedβ3hAla][NMeL]I[Sar][Sar][NMeCha][Sar][hPhe(3-Cl-4-CF3)]P)) the IC50 was over 500 nM. Compound `CC[C@H](C)[C@@H]1NC(=O)[C@H](CC(C)C)N(C)C(=O)C[C@@H](C)NC(=O)[C@H](CC(C)C)N(C)C(=O)C2(CCCC2)NC(=O)[C@@H]2CCCN2C(=O)[C@H](CCc2ccc(C(F)(F)F)c(F)c2)NC(=O)CN(C)C(=O)[C@H](CC2CCCCC2)N(C)C(=O)CN(C)C(=O)CN(C)C1=O` [Compound 402] (cyclo([Ac5c][NMeL][d(β3hA)][NMeL]I[Sar][Sar][NMeCha][Sar][hPhe(3-F,4-CF3)]P)) has an IC50 of over 500 nM. `CC[C@H](C)[C@@H]1NC(=O)[C@H](CC(C)C)N(C)C(=O)C[C@@H](C(=O)N2CCOCC2)N(C)C(=O)[C@H](C2CCCCC2)N(C)C(=O)C2(CCCC2)NC(=O)[C@@H]2CCCN2C(=O)[C@H](CCc2ccc(C(F)(F)F)c(Cl)c2)NC(=O)CN(C)C(=O)[C@H](CC2CCCCC2)N(C)C(=O)CN(C)C(=O)CN(C)C1=O` [Compound 1333] ([NMeL]I[Sar][Sar][NMeCha][Sar][hPhe(3-Cl-4-CF3)]P[Ac5c][NMeChg][NMeD]-Morpholide; lactam N-11) was tested, and the IC50 was at most 20 nM. `CC[C@H](C)[C@@H]1NC(=O)[C@H](CC(C)C)N(C)C(=O)C[C@@H](C)NC(=O)[C@H](C(C)C)N(C)C(=O)[C@](C)(CC)NC(=O)[C@@H]2CCCN2C(=O)[C@H](CCc2ccc(C(F)(F)F)c(Cl)c2)NC(=O)CN(C)C(=O)[C@H](CC2CCCCC2)N(C)C(=O)CN(C)C(=O)CN(C)C1=O` [Compound 149] (cyclo(I[Sar][Sar][NMeCha][Sar][hPhe(3-Cl-4-CF3)]P[Iva][NMeV][d(β3hA)][NMeL])) gave an IC50 of over 500 nM. In the case of `CC[C@H](C)[C@@H]1NC(=O)[C@H](CC(C)C)N(C)C(=O)C[C@@H](C(=O)N(C)C)N(C)C(=O)[C@H](C2CCCC2)N(C)C(=O)[C@H](C(C)C)NC(=O)[C@H](CCN2CCCC(F)(F)C2)N(C)C(=O)[C@H](CCc2ccc(C(F)(F)F)c(Cl)c2)NC(=O)CN(C)C(=O)[C@H](CC2CCCCC2)N(C)C(=O)[C@@H]2CCN2C(=O)[C@H](C)N(C)C1=O` [Compound 389] ([NMeL]I[NMeA][Aze][NMeCha][Sar][hPhe(3-Cl-4-CF3)][NMeAbu(3,3-F2-piperidino)]V[NMeGly(cPent)][NMeD]-NMe2; lactam N-11), the IC50 is reported as over 500 nM. `CC[C@H](C)[C@@H]1NC(=O)[C@H](CC(C)C)N(C)C(=O)C[C@@H](C)N(C)C(=O)[C@H](C(C)C)N(C)C(=O)C2(CC2)NC(=O)[C@@H]2CCCN2C(=O)[C@H](CCc2ccc(C(F)(F)F)c(Cl)c2)NC(=O)CN(C)C(=O)[C@H](CC2CCCCC2)N(C)C(=O)CN(C)C(=O)CN(C)C1=O` [Compound 268] (cyclo([Ac3c][NMeV][NMedβ3hAla][NMeL]I[Sar][Sar][NMeCha][Sar][hPhe(3-Cl-4-CF3)]P)) was tested, and the IC50 was over 500 nM. For `CC[C@H](C)[C@@H]1NC(=O)[C@H](CC(C)C)N(C)C(=O)C[C@@H](C(=O)N2CCCCC2)N(C)C(=O)[C@H](C(C)C)N(C)C(=O)C2(CCCC2)NC(=O)[C@@H](C)NC(=O)[C@H](CCc2ccc(C(F)(F)F)c(Cl)c2)NC(=O)CN(C)C(=O)[C@H](CC2CCCCC2)N(C)C(=O)[C@@H]2CCN2C(=O)[C@H](C)N(C)C1=O` [Compound 1314] ([NMeL]I[NMeA][Aze][NMeCha][Sar][hPhe(3-Cl-4-CF3)][dA][Ac5c][NMeV][NMeD]-Piperidide; lactam N-11), the IC50 was over 500 nM. With `CC[C@H](C)[C@@H]1NC(=O)[C@H](C)N(C)C(=O)C[C@@H](C(=O)N2CCCCC2)N(C)C(=O)[C@H](C(C)C)N(C)C(=O)C2(CCCC2)NC(=O)[C@@H]2CCCN2C(=O)[C@H](CCc2ccc(C(F)(F)F)c(Cl)c2)NC(=O)[C@@H](C)N(C)C(=O)[C@H](Cc2ccc(F)cc2)N(C)C(=O)CN(C)C(=O)CN(C)C1=O` [Compound 1755] ([NMeA]I[Sar][Sar][NMePhe(4-F)][dNMeA][hPhe(3-Cl-4-CF3)]P[Ac5c][NMeV][NMeD]-Piperidide; lactam N-11) the IC50 was over 500 nM.
